# Data: US8772499B2, “TRPV3 modulators” (AbbVie Inc., priority 2011, dated 2014)
# Read-outs that look alike come from different tables or passages of the source.
# Tests used:
# human TRPV3 = target: T1, human TRPV3 (Homo sapiens, UniProt Q8NET8); experiment: In vitro antagonism of recombinant human TRPV3 activation (FLIPR Tetra calcium assay); format: cell-based; conditions: HEK293 cells stably expressing human TRPV3, agonist 2-APB at 80 μM
# T1 construct: expressed in transfected cells
# T1 sequence (Q8NET8 1-790): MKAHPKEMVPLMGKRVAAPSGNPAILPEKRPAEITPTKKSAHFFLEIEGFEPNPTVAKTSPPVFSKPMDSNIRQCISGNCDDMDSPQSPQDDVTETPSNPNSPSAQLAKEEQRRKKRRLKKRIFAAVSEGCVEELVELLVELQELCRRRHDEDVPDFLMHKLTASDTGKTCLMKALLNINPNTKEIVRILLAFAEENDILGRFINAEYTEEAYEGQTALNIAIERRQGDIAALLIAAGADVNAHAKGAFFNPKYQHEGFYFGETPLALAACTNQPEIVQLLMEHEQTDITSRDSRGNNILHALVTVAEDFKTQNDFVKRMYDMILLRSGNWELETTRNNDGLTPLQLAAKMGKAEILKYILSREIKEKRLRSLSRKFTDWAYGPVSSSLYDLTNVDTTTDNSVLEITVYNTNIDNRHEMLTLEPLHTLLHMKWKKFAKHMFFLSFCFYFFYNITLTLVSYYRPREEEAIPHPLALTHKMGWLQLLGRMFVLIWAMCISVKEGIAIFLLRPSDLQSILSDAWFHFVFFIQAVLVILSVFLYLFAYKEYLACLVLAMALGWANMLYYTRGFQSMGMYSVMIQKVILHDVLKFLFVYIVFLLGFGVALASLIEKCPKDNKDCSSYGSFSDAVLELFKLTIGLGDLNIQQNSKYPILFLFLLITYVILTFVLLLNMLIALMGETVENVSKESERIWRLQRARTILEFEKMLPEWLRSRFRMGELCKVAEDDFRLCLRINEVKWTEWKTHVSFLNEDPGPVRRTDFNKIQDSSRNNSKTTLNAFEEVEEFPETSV
# In short: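 HEK293 cells stably expressing human TRPV3, loaded with Calcium-4 dye for 90–120 min, received compound in DPBS, then 80 μM 2-APB (EC80) 3 min later. Max-minus-min fluorescence expressed as % of 2-APB response without antagonist; IC50 values mostly averages of n≥2 runs.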
# [1] = In vitro human microsomal stability assay; format: in vitro ADME
# In short: (§1)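 NADPH-fortified liver microsome incubations at 37° C. served for both species: Sprague-Dawley rat and human.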
# [2] = In vitro rat microsomal stability assay; format: in vitro ADME, rat (Sprague-Dawley)
# In short: as §1
# [3] = actual measured value shown parenthetically, in most cases average of at least two runs, read-out: IC50
# [4] = human, microsomes, 0.5 h, 0.5 μM, pH 7.4
# [5] = Sprague-Dawley, rat, microsomes, 0.5 h, 0.5 μM, pH 7.4
# [6] = reported range, read-out: IC50 (range class)
# [7] = human liver microsomes, 0.5 μM substrate, 0.25 mg/mL microsomal protein, pH 7.4, 37° C., NADPH, 30 minutes
# [8] = rat liver microsomes (Sprague-Dawley), 0.5 μM substrate, 0.25 mg/mL microsomal protein, pH 7.4, 37° C., NADPH, 30 minutes
SMILES,IC50 (human TRPV3; [3]) [µM],"HUMAN MICROSOMAL STABILITY (% REMAINING AFTER 30 MINUTES) [1, 4] [%]","RAT MICROSOMAL STABILITY (% REMAINING AFTER 30 MINUTES) [2, 5] [%]",IC50 (human TRPV3; [6]) [µM],"HUMAN MICROSOMAL STABILITY (% REMAINING AFTER 30 MINUTES) [1, 7] [%]","RAT MICROSOMAL STABILITY (% REMAINING AFTER 30 MINUTES) [2, 8] [%]"
"O[C@@H](c1ccccn1)C1(c2cc(C(F)(F)F)ccn2)CC(F)(F)C1 [Example 125, (R)-{3,3-difluoro-1-[4-(trifluoromethyl)pyridin-2-yl]cyclobutyl}(pyridin-2-yl)-methanol]",18.6,53,8.8,,,
"O[C@H](c1ccccn1)C1(c2cc(C(F)(F)F)ccn2)CC(F)(F)C1 [Example 126, (S)-{3,3-difluoro-1-[4-(trifluoromethyl)pyridin-2-yl]cyclobutyl}(pyridin-2-yl)methanol]",0.82,21,7.7,,,
"Nc1cccnc1C(O)C1(c2ccc(C(F)(F)F)cc2)CCC1 (stereo not drawn) [Example 127, (3-aminopyridin-2-yl) {1-[4-(trifluoromethyl)phenyl]cyclobutyl}methanol]",11.6,51,1.1,,,
"COC1(OC)CC(c2ccc(OC(F)(F)F)cc2)(C(O)c2ccccn2)C1 (stereo not drawn) [Example 129, {3,3-dimethoxy-1-[4-(trifluoromethoxy)phenyl]cyclobutyl}(pyridin-2-yl)-methanol]",0.33,46,0.01,,,
"Nc1cccnc1C(O)C1(c2ccc(Cl)c(Cl)c2)CCC1 (stereo not drawn) [Example 130, (3-aminopyridin-2-yl)[1-(3,4-dichlorophenyl)cyclobutyl]methanol]",3.11,4.0,<0.01,,,
"OC(c1ccccn1)C1(c2ccc(C(F)(F)F)cc2)CC(F)(F)C1 (stereo not drawn) [Example 133, {3,3-difluoro-1-[4-(trifluoromethyl)phenyl]cyclobutyl}(pyridin-2-yl)-methanol]",0.12,73,61,,,
"O[C@H](c1ccccn1)[C@@]1(c2ccc(Cl)c(Cl)c2)CCO1 [Example 135, (R)-[(2S)-2-(3,4-dichlorophenyl)oxetan-2-yl](pyridin-2-yl)methanol]",1.01,33,3.4,,,
"OC(c1ccccn1)C1(c2ccc(C(F)(F)F)cn2)CC(F)(F)C1 (stereo not drawn) [Example 137, {3,3-difluoro-1-[5-(trifluoromethyl)pyridin-2-yl]cyclobutyl}(pyridin-2-yl)-methanol]",4.87,77,>85,,,
"OC(c1ccccn1)C1(c2ccc(Cl)c(C(F)(F)F)c2)CC(F)(F)C1 (stereo not drawn) [Example 138, {1-[4-chloro-3-(trifluoromethyl)phenyl]-3,3-difluorocyclobutyl}(pyridin-2-yl)methanol]",0.83,41,18,,,
"OC(c1ccccn1)C1(c2ccc(F)c(C(F)(F)F)c2)CC(F)(F)C1 (stereo not drawn) [Example 139, {3,3-difluoro-1-[4-fluoro-3-(trifluoromethyl)phenyl]cyclobutyl}(pyridin-2-yl)methanol]",0.75,41,26,,,
"OC(c1ccccn1)C1(c2ccc(Cl)c(Cl)c2)CCNCC1 (stereo not drawn) [Example 140, [4-(3,4-dichlorophenyl)piperidin-4-yl](pyridin-2-yl)methanol]",> 20,>85,37,> 20,,
"CN1CCC(c2ccc(Cl)c(Cl)c2)(C(O)c2ccccn2)CC1 (stereo not drawn) [Example 141, [4-(3,4-dichlorophenyl)-1-methylpiperidin-4-yl](pyridin-2-yl)methanol]",> 20,,,> 20,>85,59
"OC(c1ccccn1)C1(c2ccccc2OC(F)(F)F)CCNCC1 (stereo not drawn) [Example 142, pyridin-2-yl{4-[2-(trifluoromethoxy)phenyl]piperidin-4-yl}methanol]",> 20,>85,37,> 20,,
"CN1CCC(c2ccc(C(F)(F)F)cc2)(C(O)c2ccccn2)CC1 (stereo not drawn) [Example 143, {1-methyl-4-[4-(trifluoromethyl)phenyl]piperidin-4-yl}(pyridin-2-yl)-methanol]",> 20,,,> 20,>85,80
"OC(c1ccccn1)C1(c2ccc(OC(F)(F)F)cc2)CCNCC1 (stereo not drawn) [Example 144, pyridin-2-yl{4-[4-(trifluoromethoxy)phenyl]piperidin-4-yl}methanol]",> 20,>85,51,> 20,,
"CN1CCC(c2ccc(OC(F)(F)F)cc2)(C(O)c2ccccn2)CC1 (stereo not drawn) [Example 145, {1-methyl-4-[4-(trifluoromethoxy)phenyl]piperidin-4-yl}(pyridin-2-yl)-methanol]",1.77,,,,68,42
"CN1CCC(c2cccc(OC(F)(F)F)c2)(C(O)c2ccccn2)CC1 (stereo not drawn) [Example 146, {1-methyl-4-[3-(trifluoromethoxy)phenyl]piperidin-4-yl}(pyridin-2-yl)-methanol]",12.8,,,,84,8.9
"OC(c1ccccn1)C1(c2ccc(C(F)(F)F)cc2)CCNCC1 (stereo not drawn) [Example 147, pyridin-2-yl{4-[4-(trifluoromethyl)phenyl]piperidin-4-yl}methanol]",> 20,>85,79,> 20,,
"OC(c1ccccn1)C1(c2cccc(OC(F)(F)F)c2)CCNCC1 (stereo not drawn) [Example 148, pyridin-2-yl{4-[3-(trifluoromethoxy)phenyl]piperidin-4-yl}methanol]",3.1,,,,>85,53
"CN1CCC(c2ccccc2OC(F)(F)F)(C(O)c2ccccn2)CC1 (stereo not drawn) [Example 149, {1-methyl-4-[2-(trifluoromethoxy)phenyl]piperidin-4-yl}(pyridin-2-yl)-methanol]",6.2,,,,>85,62
"COC1CC(c2ccc(Cl)c(Cl)c2)(C(O)c2ccccn2)C1 [Example 150, (S)-[cis-1-(3,4-dichlorophenyl)-3-methoxycyclobutyl](pyridin-2-yl)-methanol]",1.69,42,<0.01,,,
"OC(c1ccccn1)C1(c2ccc(C(F)(F)F)cc2)CNC1 (stereo not drawn) [Example 152, pyridin-2-yl{3-[4-(trifluoromethyl)phenyl]azetidin-3-yl}methanol]",19.7,>85,>85,,,
"CC(C)(C)OC(=O)N1CC(c2ccc(C(F)(F)F)cc2)(C(O)c2ccccn2)C1 (stereo not drawn) [Example 153, tert-butyl 3-[hydroxy(pyridin-2-yl)methyl]-3-[4-(trifluoromethyl)phenyl]-azetidine-1-carboxylate]",8.01,49,21,,,
"O[C@H](c1ccccn1)C1(c2ccc(C(F)(F)F)cc2)CC(F)(F)C1 [Example 154, (S)-{3,3-difluoro-1-[4-(trifluoromethyl)phenyl]cyclobutyl}(pyridin-2-yl)-methanol]",0.23,56,78,,,
